We go through one sequence from patent publication US20260265771A1, “METHODS OF INCREASING THE REGENERATION EFFICIENCY IN PLANTS” (Institute of Genetics and Developmental Biology Chinese …, priority 2022, published 2026).

The subject of assay [1] is hypocotyl explants of tomato cultivar Ailsa Craig. The assay is described as follows: Callus formation of tomato hypocotyl explants on callus-inducing medium (CIM). It is filed as cell-based. As to the method: FIG. 6—(a) Hypocotyl explants of WT (Ailsa Craig, AC) and prr mutants were cultured on callus-inducing medium (CIM) in the absence of SIPEP (REF1) and CIM REF1 at a concentration of 1 nM for 14 days, photographs of the callus formation of these plants are shown. (b) The distribution of projected callus area of WT and prr mutants grown in the absence of REF1 in a callus inducing medium (control) and in a callus inducing medium in the presence of 1 nM SIPEP (REF1). The projected area of callus was quantified by Image J. Individual values (black dots) are shown and error bars represent SD from three independent experiments.
FIG. 9—Hypocotyl explants of WT (Ailsa Craig, AC) were cultured on callus-inducing medium (CIM) containing indicated concentrations of REF1, and callus phenotype was scored 14 days after incubation. […] The projected area of callus was quantified by Image J. Individual values (black dots) are shown and error bars represent SD from three independent experiments. ***P<0.001, **P<0.01, *P<0.05 (Student's t-test).
Relative callus area was determined by quantifying the area of each callus using ImageJ, the average of each group was calculated, for each group this was then divided by the average of the control group.
To further test whether SIPEP (REF1) is a wound signal promoting regeneration in tomato, wild type, prr-1 and prr-2 Aisla Craig hypocotyl explants were cultured on a callus inducing medium in the presence and absence of SIPEP (REF1) at 1 nM. The callus phenotype was then scored at 14 days after incubation (FIG. 6), here it can be seen that presence of 1 nM REF1 in the medium increased callus area in all explants tested, crucially, the relative callus area of prr-1 and prr-2 was restored when REF1 was present in the medium.
To test the effect of the dose of SIPEP (REF1) on callus formation hypocotyl explants of WT (Ailsa Craig) were cultured on callus-inducing medium (CIM) containing indicated concentrations of REF1 in FIG. 9 (mock with 0, 10^−4, 10^−3, […], 1, and 10 nM) and callus phenotype was scored 14 days after incubation. Box plots represent the distribution of projected callus area.
Callus formation was measured in RER knock out mutants (rer-1 and rer-3) compared to wild type (WT) tomato plants (Ailsa Craig) in the presence and absence of SIPEP (REF1). […] Here it can be seen that callus area was highest in WT plant grown with REF1, as REF1 induces callus formation, as shown in Examples 2 and 4.

The test system of assay [2] is RER1-SERKs receptor complex. Nature of the assay: Co-immunoprecipitation of RER with SERKs in tobacco leaves. It is filed as cell-based, tomato. As to conditions: 100 nM REF1. As to the method: FIG. 49—REF1-RER1 regulates regeneration through SERK co-receptors. (a) RER1 complexes with SERK1, SERK3a and SERK3b in a REF1-dependent manner. Tobacco leaves transfected with SERKs-myc and RER1-HA-Flag were treated with 100 nM REF1 before IP with anti-myc agarose. RER1 and SERKs were detected by immunoblotting with anti-Flag or anti-myc antibodies, respectively. (b and c) REF1-induced callus formation of indicated genotypes. Hypocotyl explants were cultured on CIM with or without 1 nM REF1 for 14 d before callus phenotype was scored. Shown are representative callus images (b) and quantification of the callus projection area (c). Bars, 1 mm. Data are mean±SE. n=30 hypocotyl explants. (d and e) REF1-induced shoot organogenesis of indicated genotypes. Hypocotyl explants were cultured on CIM for 14 d and then transferred to SIM with or without 1 nM REF1 for 21d before shoot organogenesis phenotype was scored. Shown are representative images of hypocotyl explants (d) and the number of regenerated shoots per explant (e). Bars, 0.5 cm. Data are mean±SE. n=50 hypocotyl explants. In (c), the projected area of callus was quantified by Image J. Box plots represented the distribution of projected callus area. […] In (c) and (e), data points from three biological replicates were analysed with a one-sided Kruskal-Wallis test with Holm correction, followed by post hoc Dunn's test. […]
Chain of RER1-SERKs receptor complex (as listed by the source): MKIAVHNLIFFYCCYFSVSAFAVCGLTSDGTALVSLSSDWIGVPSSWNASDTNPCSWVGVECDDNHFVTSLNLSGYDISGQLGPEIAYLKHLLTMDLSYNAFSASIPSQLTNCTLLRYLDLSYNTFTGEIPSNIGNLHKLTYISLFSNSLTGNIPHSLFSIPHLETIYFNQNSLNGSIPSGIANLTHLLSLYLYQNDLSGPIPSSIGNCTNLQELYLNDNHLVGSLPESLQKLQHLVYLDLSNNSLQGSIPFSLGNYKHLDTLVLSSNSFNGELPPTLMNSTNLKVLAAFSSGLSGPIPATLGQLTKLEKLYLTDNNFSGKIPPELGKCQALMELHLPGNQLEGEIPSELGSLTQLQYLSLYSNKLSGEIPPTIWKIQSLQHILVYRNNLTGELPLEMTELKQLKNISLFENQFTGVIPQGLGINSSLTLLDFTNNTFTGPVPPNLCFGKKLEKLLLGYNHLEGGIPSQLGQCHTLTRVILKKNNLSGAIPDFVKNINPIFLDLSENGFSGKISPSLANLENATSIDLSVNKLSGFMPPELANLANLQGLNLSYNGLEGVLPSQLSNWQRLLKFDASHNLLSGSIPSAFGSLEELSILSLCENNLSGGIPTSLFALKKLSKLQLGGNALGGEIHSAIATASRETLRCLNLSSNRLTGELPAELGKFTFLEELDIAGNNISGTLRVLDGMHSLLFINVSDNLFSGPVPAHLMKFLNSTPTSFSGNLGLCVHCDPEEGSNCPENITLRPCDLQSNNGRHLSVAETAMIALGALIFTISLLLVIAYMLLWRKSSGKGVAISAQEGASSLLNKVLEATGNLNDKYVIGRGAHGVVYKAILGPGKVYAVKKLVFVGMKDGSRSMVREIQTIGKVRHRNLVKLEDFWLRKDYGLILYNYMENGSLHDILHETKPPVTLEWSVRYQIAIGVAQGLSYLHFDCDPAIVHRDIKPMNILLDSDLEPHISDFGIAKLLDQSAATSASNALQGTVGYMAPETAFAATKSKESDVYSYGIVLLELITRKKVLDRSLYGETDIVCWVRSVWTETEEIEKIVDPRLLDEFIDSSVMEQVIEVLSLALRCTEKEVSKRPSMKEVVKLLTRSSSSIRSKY

In assay [3] the test system is hypocotyl explants of tomato cultivar Ailsa Craig. The assay is described as follows: Shoot regeneration of tomato hypocotyl explants on shoot inducing medium (SIM). It is filed as cell-based. As for the experimental part:
FIG. 8—Hypocotyl explants of wild-type (WT) Ailsa Craig and prr mutants cultured in the presence or absence of SIPEP (REF1) at 1 nM in a shoot inducing medium for 21 days.
Relative regeneration frequency was determined by counting the number of regenerated shoots and calculating the average for each group, the average of each group was then divided by the average of the control group.
The number of hypocotyls means explants with varying numbers of regenerated shoots.
To test whether SIPEP (REF1) could rescue shoot regeneration defects in prr mutants were cultured in shoot inducing medium (SIM) in the presence and absence of 1 nM REF1. Shoot regeneration was then scored after 21 days.
Relative regeneration frequency was determined by counting the number of regenerated shoots and calculating the average for each group, the average of each group was then divided by the average of the WT-Mock group.
‘The number of hypocotyls’ means explants with different number of regenerated shoots (0, 1, 2, 3 and ≥4) in each of the genotypes (WT, prr-1, prr-2).
Shoot regeneration was also measured in RER knock out mutants (rer-1 and rer-3) compared to wild type (WT) tomato plants (Ailsa Craig) in the presence and absence of SIPEP (REF1).

[4] abbreviates: rer-1 and rer-3 knockouts, presence vs absence of REF1.
Setting [5] is: WT, prr-1 and prr-2, SIM with 1 nM REF1, 21 days.

“Also recorded” adds a separate entry of the source.

In the case of “ATDRRGRPPSRPKVGSGPPPQNN (listed as Solanum lycopersicum) [REF1, 23 amino acid tomato peptide cleaved from precursor PROSIPEP]”, in assay [1] (WT Ailsa Craig explants, CIM, 14 days), the “optimum concentration to maximize callus formation” value is recorded as 1 nM. Moreover, the relative callus area is “sharp decrease” in assay [1] (WT Ailsa Craig, 10 nM REF1 compared with 1 nM); “induced larger callus areas; also recorded: highest” in assay [1] (WT Ailsa Craig, CIM with 1 nM REF1 vs without, 14 days); “restored” in assay [1] (prr-1 and prr-2 mutants, CIM with 1 nM REF1, 14 days). For the same sequence, the “relative callus area, dose dependence” value in assay [1] (WT Ailsa Craig, CIM, mock to 10 nM REF1, 14 days) was “increased in a dose dependent manner”. In addition, the “REF1 induced callus formation (relative callus area)” value in assay [1] (setting [4]) is recorded as “failing to lead to any increase; also recorded: defective”. Moreover, the “complex formation of RER with SERK1, SERK3a and SERK3b (co-IP)” value in assay [2] is recorded as “could simulate complex formation; also recorded: REF1-dependent”. In addition, the shoot regeneration result in assay [3] (WT Ailsa Craig, SIM with 1 nM REF1 vs without, 21 days) is “increased; also recorded: highest”; in assay [3] (prr-1 and prr-2 mutants, SIM with 1 nM REF1, 21 days) it was “rescued”. Besides, in assay [3] (setting [5]), the number of hypocotyl result is reported as “increased”. Besides, the relative regeneration frequency result in assay [3] (setting [5]) was “increased”. Also, the “REF1 induced shoot regeneration (shoot regeneration frequency, number of hypocotyl)” value in assay [3] (setting [4]) was “did not lead to any increase; also recorded: defective”.
